For orientation: EC50 means the concentration that produces a half-maximal response.

Each structure is given as a SMILES string.

The target in this test is T1, Piezo1 (Rattus norvegicus, UniProt Q0KL00).
T1 construct: native channel in INS-1 832/13 and BRIN-BD11 rat β-cell lines
Nature of the test: fura-2 Ca2+ influx and whole-cell patch-clamp in INS-1 cells; Piezo1 siRNA reduced Yoda1-induced insulin release. Format: cell-based.

T1 sequence (Q0KL00 whole entry): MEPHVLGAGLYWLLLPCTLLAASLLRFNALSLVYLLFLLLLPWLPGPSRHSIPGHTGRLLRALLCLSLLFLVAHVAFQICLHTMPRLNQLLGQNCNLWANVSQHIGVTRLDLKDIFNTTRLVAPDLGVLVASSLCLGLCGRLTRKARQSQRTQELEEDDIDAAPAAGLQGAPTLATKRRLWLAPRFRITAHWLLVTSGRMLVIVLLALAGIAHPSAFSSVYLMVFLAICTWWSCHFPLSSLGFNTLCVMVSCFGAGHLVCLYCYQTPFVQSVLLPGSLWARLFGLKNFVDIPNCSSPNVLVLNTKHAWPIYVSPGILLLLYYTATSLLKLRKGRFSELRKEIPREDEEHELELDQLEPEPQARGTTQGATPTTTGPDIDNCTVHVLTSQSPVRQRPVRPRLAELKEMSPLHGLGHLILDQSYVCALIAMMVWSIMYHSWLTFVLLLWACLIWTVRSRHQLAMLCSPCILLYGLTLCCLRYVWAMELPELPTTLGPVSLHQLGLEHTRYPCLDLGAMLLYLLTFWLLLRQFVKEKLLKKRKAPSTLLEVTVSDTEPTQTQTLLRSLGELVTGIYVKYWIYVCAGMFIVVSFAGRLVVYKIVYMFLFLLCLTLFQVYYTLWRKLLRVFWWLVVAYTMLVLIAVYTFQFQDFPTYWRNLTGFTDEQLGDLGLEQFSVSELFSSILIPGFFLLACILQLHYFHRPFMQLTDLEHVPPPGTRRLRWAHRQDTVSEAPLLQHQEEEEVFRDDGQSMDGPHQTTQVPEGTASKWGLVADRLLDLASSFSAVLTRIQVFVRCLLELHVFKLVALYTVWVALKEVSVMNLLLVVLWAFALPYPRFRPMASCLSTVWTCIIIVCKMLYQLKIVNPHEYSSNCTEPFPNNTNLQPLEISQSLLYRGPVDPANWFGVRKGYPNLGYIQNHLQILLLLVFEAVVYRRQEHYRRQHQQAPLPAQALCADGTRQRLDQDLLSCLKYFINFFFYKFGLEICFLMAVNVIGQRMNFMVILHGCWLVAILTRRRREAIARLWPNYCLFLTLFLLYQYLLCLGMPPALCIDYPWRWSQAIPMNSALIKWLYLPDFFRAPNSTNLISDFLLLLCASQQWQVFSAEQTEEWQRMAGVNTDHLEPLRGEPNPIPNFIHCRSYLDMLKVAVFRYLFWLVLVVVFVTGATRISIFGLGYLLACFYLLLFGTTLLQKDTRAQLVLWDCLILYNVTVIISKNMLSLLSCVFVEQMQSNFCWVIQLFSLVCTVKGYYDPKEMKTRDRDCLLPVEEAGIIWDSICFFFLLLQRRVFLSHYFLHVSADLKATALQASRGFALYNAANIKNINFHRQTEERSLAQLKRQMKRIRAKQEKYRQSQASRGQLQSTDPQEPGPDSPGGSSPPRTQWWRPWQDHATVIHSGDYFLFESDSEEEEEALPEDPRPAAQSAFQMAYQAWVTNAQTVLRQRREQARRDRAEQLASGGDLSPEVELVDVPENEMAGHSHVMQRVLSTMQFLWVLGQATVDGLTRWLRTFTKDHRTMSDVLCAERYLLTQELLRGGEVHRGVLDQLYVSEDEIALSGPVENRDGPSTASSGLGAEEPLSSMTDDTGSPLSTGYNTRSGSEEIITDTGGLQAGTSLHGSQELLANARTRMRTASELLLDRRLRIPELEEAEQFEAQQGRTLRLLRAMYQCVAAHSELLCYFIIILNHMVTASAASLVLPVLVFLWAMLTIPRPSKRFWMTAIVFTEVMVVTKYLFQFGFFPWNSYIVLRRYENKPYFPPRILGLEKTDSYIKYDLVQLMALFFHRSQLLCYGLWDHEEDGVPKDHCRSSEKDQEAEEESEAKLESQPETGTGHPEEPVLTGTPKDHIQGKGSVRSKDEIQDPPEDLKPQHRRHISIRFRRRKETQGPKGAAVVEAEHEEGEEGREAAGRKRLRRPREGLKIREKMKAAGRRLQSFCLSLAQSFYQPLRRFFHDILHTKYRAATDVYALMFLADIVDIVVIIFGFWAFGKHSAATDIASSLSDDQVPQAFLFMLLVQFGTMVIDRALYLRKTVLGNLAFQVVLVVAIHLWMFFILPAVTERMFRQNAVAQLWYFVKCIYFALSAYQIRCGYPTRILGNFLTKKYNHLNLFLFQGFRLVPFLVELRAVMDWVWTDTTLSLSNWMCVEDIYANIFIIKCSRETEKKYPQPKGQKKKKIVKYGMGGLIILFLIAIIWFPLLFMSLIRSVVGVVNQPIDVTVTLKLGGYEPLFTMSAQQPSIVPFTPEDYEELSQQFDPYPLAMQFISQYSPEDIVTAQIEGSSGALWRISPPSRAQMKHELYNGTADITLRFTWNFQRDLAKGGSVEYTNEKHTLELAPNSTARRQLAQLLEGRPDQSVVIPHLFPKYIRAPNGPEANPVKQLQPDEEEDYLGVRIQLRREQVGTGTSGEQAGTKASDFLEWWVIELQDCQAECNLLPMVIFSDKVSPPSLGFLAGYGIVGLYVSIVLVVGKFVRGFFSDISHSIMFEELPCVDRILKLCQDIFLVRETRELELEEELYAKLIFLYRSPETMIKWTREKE

`Clc1cccc(Cl)c1CSc1nnc(-c2cnccn2)s1` [Yoda1] displayed an EC50 of around 4 µM.

(Values after publication PMC6856185, “Piezo1 channel activation mimics high glucose as a stimulator of insulin release” (Scientific Reports, 2019).)
